Like-named read-outs stand apart in the source and are kept apart here.
Tested on: HPV-Ker cells
Assay: Viability test of HPV-Ker keratinocytes by real-time impedance monitoring (xCELLigence RTCA)
Assay type: cell-based, human
Conditions: for IC50: Homo sapiens, Keratinocyte; for keratinocyte inhibitory activity in vitro (overall verdict) / cytotoxic effect against keratinocytes: HPV-Ker; for keratinocyte inhibitory activity in vitro (overall verdict): compared to ingenol mebutate
Source text: The main risk factor of induction of AK is UV irradiation. The UVB component of sunlight damages DNA, which might cause mutations in p53 and other tumor suppressor genes. Therefore, as an in vitro model of AK, we used the HPV-Ker cell line which contains the E6 oncoprotein of the human papillomavirus, leading to the degradation of the p53 tumor suppressor [26].
Since our compounds, especially the ingenol-derivatives, are structurally very similar to ingenol mebutate (Figure 3), we were interested in whether they have any effect on the viability of keratinocytes. The HPV-Ker cell line was treated with the isolated ingol- and ingenol-type diterpenoids with a concentration range of 5 × 10^−9–5 × 10^−4 M, the viability was measured with the xCELLigence System RTCA HT (Agilent Technologies, Santa Clara, CA, USA) instrument for 72 h, and data at 24 and 48 h were used for calculations (Table 1). IC50 values were calculated based on the sigmoidal dose–response formula.
The immortalized human keratinocyte cell line (HPV-Ker) was cultured in Keratinocyte-SFM supplemented with 5 ng/mL of recombinant epidermal growth factor, […] of bovine pituitary extract, and antibiotic/antimycotic solution in a CO2 thermostat at 37 °C.
The effect of the extracts and the purified compounds on HPV-Ker cells was investigated by real-time monitoring with the xCELLigence System RTCA HT Instrument (ACEA Biosciences, San Diego, CA, USA). 8 × 10^3 HPV-Ker cells were seeded in 96-well E-plates and keratinocytes were allowed to attach to the bottom of the wells and grow for 24 h. Cells were then treated with the indicated extract or substance for another 72 h. Real-time measurements of impedance were monitored every 15 min, then data at 24 and 48 h were used for calculations. The half-maximal inhibitory concentration (IC50) values for the compounds were calculated and GraphPad Prism 9.0 was used to plot results. All experiments were performed in duplicate, in three independent repeats.

[1] = HPV-Ker cell line, 24 h of treatment, ± SD, read-out: IC50 Value 24 h
[2] = HPV-Ker cell line, 48 h of treatment, ± SD, read-out: IC50 Value 48 h
[3] = HPV-Ker cells, RTCA normalized CI * hours, 24 h, read-out: IC50 (24h), Figure 4
[4] = HPV-Ker cells, RTCA normalized CI * hours, 48 h, read-out: IC50 (48h), Figure 4

SMILES	IC50 [1] [nM]	IC50 [2] [nM]	also measured
C/C=C(\C)C(=O)O[C@@H]1/C(C)=C/[C@@]23O[C@@]2(C[C@H](C)[C@@H]3OC(C)=O)C(=O)[C@H](C)[C@H](OC(C)=O)[C@@H]2[C@H]([C@@H]1O)C2(C)C [Compound 1, Ingol 3,12-diacetate 7-tigliate]	14200 ± 2850	1720 ± 140	–
C/C=C(\C)C(=O)O[C@@H]1/C(C)=C/[C@@]23O[C@@]2(C[C@H](C)[C@@H]3OC(C)=O)C(=O)[C@H](C)[C@H](OC(C)=O)[C@@H]2[C@H]([C@@H]1OC)C2(C)C [Compound 2, 8-O-methyl-ingol 3,12-diacetate 7-tigliate]	17300 ± 1650	14500 ± 3780	–
CO[C@H]1[C@H]2[C@@H]([C@@H](OC(C)=O)[C@@H](C)C(=O)[C@@]34C[C@H](C)[C@H](OC(C)=O)[C@]3(/C=C(\C)[C@H]1OC(=O)c1ccccc1)O4)C2(C)C [Compound 3, 8-O-methyl-ingol 3,12-diacetate 7-benzoate]	–	–	IC50 Value 24 h (HPV-Ker cell line, 24 h of treatment, ± SD): inactive; IC50 Value 48 h (HPV-Ker cell line, 48 h of treatment, ± SD): inactive
C/C=C(/C)C(=O)O[C@H]1C(C)=CC23C(=O)[C@@H](C=C(COC(C)=O)[C@@H](O)[C@]12O)[C@H]1[C@@H](C[C@H]3C)[C@@]1(C)COC(C)=O [Compound 6, 17-acetoxyingenol 3-angelate 20-acetate]	390 ± 90	320 ± 50	keratinocyte inhibitory activity in vitro (overall verdict): strong keratinocyte inhibitory activity
C/C=C(/C)C(=O)O[C@H]1C(C)=CC23C(=O)[C@@H](C=C(COC(C)=O)[C@@H](OC(C)=O)[C@]12O)[C@H]1[C@@H](C[C@H]3C)[C@@]1(C)COC(C)=O [Compound 7, 17-acetoxyingenol 3 angelate 5,20-diacetate]	320 ± 20	870 ± 70	keratinocyte inhibitory activity in vitro (overall verdict): strong keratinocyte inhibitory activity; IC50 [3]: 323 nM; IC50 [4]: 873 nM
C/C=C(/C)C(=O)O[C@H]1C(C)=CC23C(=O)[C@@H](C=C(C)[C@@H](O)[C@]12O)[C@H]1[C@@H](C[C@H]3C)[C@@]1(C)COC(C)=O [Compound 8, 17-acetoxy-20-deoxyingenol 3-angelate]	4320 ± 920	–	–
C/C=C(/C)C(=O)O[C@@H]1C(C)=C[C@@H]2C(=O)C3(C=C(C)[C@H](O)[C@@]13O)[C@H](C)C[C@@H]1[C@H]2[C@]1(C)COC(C)=O [Compound 9, 17-acetoxy-20-deoxyingenol 5-angelate]	14800 ± 3830	7930 ± 1710	–
C/C=C(/C)C(=O)O[C@H]1C(C)=C[C@]23C(=O)[C@@H](C=C(CO)[C@@H](O)[C@]12O)[C@H]1[C@@H](C[C@H]3C)C1(C)C [Ingenol mebutate, reference compound]	840 ± 10	960 ± 30	cytotoxic effect against keratinocytes (0.5 µg/mL, 24 h): weaker, but still significant, cytotoxic effect; cytotoxic effect against keratinocytes (0.5 µg/mL, 48 h): comparable to the treatment when 5 µg/mL was used for 48 h; cytotoxic effect against keratinocytes (5 µg/mL, 24 h): strongest cytotoxic effect; cytotoxic effect against keratinocytes (5 µg/mL, 48 h): lower cytotoxicity; IC50 [3]: 844 nM; IC50 [4]: 959 nM

— article PMC8231945, “Ingol and Ingenol-Type Diterpenes from Euphorbia trigona Miller with Keratinocyte Inhibitory Activity” (Plants, 2021)
